Here are results for 39 molecules from patent US12116358B2, “Substituted indoles and methods of use thereof” (EPIZYME, INC., priority 2018, dated 2024).

The subject of one experiment is H3K36me3 in A549 cells. Kind of experiment: In-Cell Western (ICW) assay of SETD2 inhibitors (A549 assay). It counts as cell-based, human. The conditions noted are these: A549 cells, read-out: SETD2 A549. The essentials:
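H3K36me3 In-Cell Western: cells exposed to compound for 3 days at 4,000 cells/well, 37° C. DRAQ5 (1:1000) marked cell number, with 700/800-channel Licor read-out.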

In a further experiment the target is T1, SETD2(1434-1711) (Homo sapiens, UniProt Q9BYW2).
T1 construct: SETD2 (1434-1711) Assay; catalogue N/A
T1 sequence (Q9BYW2 1434-1711): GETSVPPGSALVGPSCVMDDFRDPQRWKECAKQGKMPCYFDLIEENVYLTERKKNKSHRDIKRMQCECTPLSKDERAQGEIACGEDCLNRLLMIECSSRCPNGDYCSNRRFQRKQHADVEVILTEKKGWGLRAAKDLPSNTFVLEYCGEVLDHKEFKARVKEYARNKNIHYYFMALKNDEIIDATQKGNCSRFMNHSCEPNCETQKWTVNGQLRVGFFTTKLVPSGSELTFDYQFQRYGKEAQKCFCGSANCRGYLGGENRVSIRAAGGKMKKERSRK
Nature of the experiment: SETD2 (1434-1711) assay. It counts as biochemical. The conditions noted are these: read-out: SETD2 (1434-1711).

SMILES strings stand for the structures. Like-named read-outs stand apart in the source and are kept apart here. Some results are limits rather than exact numbers.

Turning to `Cc1ccc(F)c2cc(C(=O)Nc3cccc4c3cnn4[C@H]3CC[C@H](N(C)C)CC3)[nH]c12` [Cpd. No. 213, N-(1-((1r,4r)-4-(dimethylamino)cyclohexyl)-1H-indazol-4-yl)-4-fluoro-7-methyl-1H-indole-2-carboxamide], the IC50 with H3K36me3 in A549 cells (Homo sapiens) was 500 nM; on SETD2(1434-1711) it was 7 nM.
In the case of `Cc1ccc(F)c2cc(C(=O)Nc3cccc4c3cnn4C3CCN(C)CC3)[nH]c12` [compound 247], the IC50 is 600 nM in the experiment with H3K36me3 in A549 cells (Homo sapiens) and 50 nM at SETD2(1434-1711).
Turning to `CC(=O)N1[C@H](C)CN([C@@H]2CCC[C@@H](NC(=O)c3cc4c(F)ccc(C)c4[nH]3)C2)C[C@@H]1C` [compound 1096], the IC50 in the experiment on H3K36me3 in A549 cells (Homo sapiens) is greater than 2000 nM; on SETD2(1434-1711), 2400 nM.
For `Cc1cccc2cc(C(=O)N[C@H]3C[C@@H](NC(=O)CCN)C3)[nH]c12` [compound 596] the same measures were greater than 25000 nM and greater than 50000 nM.
For `Cc1ccc(F)c2cc(C(=O)N[C@@H]3CCC[C@H](N4CCn5c(cccc5=O)C4)C3)[nH]c12` [compound 1048], in that order: 70 nM and 20 nM.
On to `Cc1ccc(F)c2cc(C(=O)Nc3cccc(Cc4ncc[nH]4)c3)[nH]c12` [compound 357], for which the IC50 in the experiment with H3K36me3 in A549 cells is greater than 2000 nM; at SETD2(1434-1711), 700 nM.
Regarding `Cc1ccc(F)c2cc(C(=O)NC3CCCC(N4CCN5C(=O)COCC5C4)C3)[nH]c12` (stereo not drawn) [compound 1140], the IC50 is 100 nM in the experiment with H3K36me3 in A549 cells and 50 nM on SETD2(1434-1711).
For `CCN(C1CCN(C2CCCC(NC(=O)c3cc4c(F)ccc(C)c4[nH]3)C2)C1)S(C)(=O)=O` (stereo not drawn) [compound 1122], in that order: greater than 2000 nM and 1900 nM.
On to `CC(=O)N1CC2CCC1CN2C1CCCC(NC(=O)c2cc3c(F)ccc(C)c3[nH]2)C1` (stereo not drawn) [compound 961], for which the IC50 in the experiment on H3K36me3 in A549 cells is 400 nM; on SETD2(1434-1711), 30 nM.
As for `Cc1ccc(F)c2cc(C(=O)Nc3cccc(C4CCC5C(CCN5C)C4)c3)[nH]c12` (stereo not drawn) [compound 294], the IC50 was 1100 nM in the experiment on H3K36me3 in A549 cells (Homo sapiens) and 30 nM on SETD2(1434-1711).
Turning to `Cc1ccc(F)c2cc(C(=O)NC3CCCC(N4CCC5(CC4)COC(=O)N5)C3)[nH]c12` (stereo not drawn) [compound 963], the IC50 was determined as 600 nM in the experiment with H3K36me3 in A549 cells and 20 nM on SETD2(1434-1711).
Turning to `Cc1cc(CC(=O)N2CCN(C)CC2)cnc1C(NC(=O)c1cc2cccc(C)c2[nH]1)C1CC1` (stereo not drawn) [compound 441], the IC50 is 5100 nM with H3K36me3 in A549 cells and 4400 nM on SETD2(1434-1711).
Turning to `Cc1ccc(F)c2cc(C(=O)N[C@@H]3CCC[C@@H](N4CCN(C(=O)C5COC5)CC4)C3)[nH]c12` [compound 919], the IC50 in the experiment on H3K36me3 in A549 cells (Homo sapiens) is greater than 2000 nM; on SETD2(1434-1711), 900 nM.
For `Cc1ccc(F)c2cc(C(=O)Nc3cccc(N4CCC5(CCNCC5)C4)c3)[nH]c12` [compound 189] the same measures were 400 nM and 6 nM.
With `Cc1ccc(F)c2cc(C(=O)NC3CCCC(N4CCN5C(=O)NCC5C4)C3)[nH]c12` (stereo not drawn) [compound 1083], the IC50 with H3K36me3 in A549 cells was 50 nM; on SETD2(1434-1711), 20 nM.
As to `Cc1ccc(F)c2cc(C(=O)NC3CCCC(N4CCN5C(=O)CN(C)C(=O)C5C4)C3)[nH]c12` (stereo not drawn) [compound 1046], the IC50 in the experiment on H3K36me3 in A549 cells was greater than 2000 nM; on SETD2(1434-1711) it was 2800 nM.
For the molecule `Cc1ccc(F)c2cc(C(=O)NC3CCCC(N4CCC5(CC4)COC(=O)N5)C3)[nH]c12` (stereo not drawn) [compound 964], the values for the IC50 in the experiment on H3K36me3 in A549 cells and at SETD2(1434-1711) were greater than 2000 nM and 500 nM, respectively.
Regarding `Cc1ccc(N2CCN(C)CC2)cc1NC(=O)c1cc2c(F)ccc(C)c2[nH]1` [compound 407], the figures for the IC50 with H3K36me3 in A549 cells and at SETD2(1434-1711) were 2800 nM and 300 nM, respectively.
For `Cc1ccc(F)c2cc(C(=O)NC3CCCC(N4CCN(C(=O)NC5CCOCC5)CC4)C3)[nH]c12` (stereo not drawn) [compound 1170], in that order: greater than 2000 nM and 1800 nM.
Consider `Cc1ccc(F)c2cc(C(=O)N[C@@H]3CCC[C@@H](N4CCN5C(=O)N(C)C[C@@H]5C4)C3)[nH]c12` [compound 1127], for which the IC50 with H3K36me3 in A549 cells (Homo sapiens) was 1300 nM; on SETD2(1434-1711), 400 nM.
Consider `Cc1ccc(F)c2cc(C(=O)NC3CCCC(c4cncnc4)C3)[nH]c12` (stereo not drawn) [compound 369], for which the figures for the IC50 with H3K36me3 in A549 cells and at SETD2(1434-1711) were greater than 2000 nM and 6300 nM, respectively.
In the case of `CC(=O)N1CCCC(c2cccc(NC(=O)c3cc4c(F)ccc(C)c4[nH]3)c2)C1` (stereo not drawn) [compound 123], the IC50 in the experiment on H3K36me3 in A549 cells (Homo sapiens) is 300 nM; on SETD2(1434-1711), 50 nM.
For `Cc1ccc(F)c2cc(C(=O)Nc3cccc(N4CCOCC4CN(C)C)c3)[nH]c12` (stereo not drawn) [compound 468] the same measures were 7500 nM and 900 nM.
With `Cc1ccc(F)c2cc(C(=O)Nc3cccc(-c4noc(=O)[nH]4)c3)[nH]c12` [compound 545], the IC50 with H3K36me3 in A549 cells is greater than 25000 nM; on SETD2(1434-1711), 3100 nM.
For `Cc1cccc2cc(C(=O)NC3CCOCC3)[nH]c12` [compound 505] the same measures were 14900 nM and 11200 nM.
For `Cc1ccc(F)c2cc(C(=O)Nc3cccc(C45CCC(N(C)C)CC4C5)c3)[nH]c12` (stereo not drawn) [compound 251] the same measures were 600 nM and 10 nM.
In the case of `CC(=O)N1CCN(C(=O)C2CCCN(C(=O)c3cc4c(F)ccc(C)c4[nH]3)C2)CC1` (stereo not drawn) [compound 886], the IC50 is greater than 2000 nM in the experiment on H3K36me3 in A549 cells (Homo sapiens) and 8900 nM on SETD2(1434-1711).
For `Cc1cccc(O)c1C(NC(=O)c1cc2cccc(C)c2[nH]1)C1CC1` (stereo not drawn) [compound 492], in that order: 12500 nM and greater than 50000 nM.
As to `Cc1cccc2cc(C(=O)NC3CC(NC(=O)CCN)C3)[nH]c12` (stereo not drawn) [compound 597], the values for the IC50 with H3K36me3 in A549 cells and on SETD2(1434-1711) were greater than 25000 nM and greater than 50000 nM, respectively.
`CC(=O)N1CCN([C@@H]2CCC[C@@H](NC(=O)c3cc4c(F)ccc(C)c4[nH]3)C2)[C@H](C)C1` [compound 1091]: the IC50 was greater than 2000 nM with H3K36me3 in A549 cells (Homo sapiens) and 5800 nM on SETD2(1434-1711).
For `Cc1ccc(F)c2cc(C(=O)Nc3cccc(N4CC5(CN(C)C5)C4)c3)[nH]c12` [compound 135] the same measures were 300 nM and 20 nM.
For `Cc1ccc(F)c2cc(C(=O)Nc3cccc([C@H]4CCN5C(=O)CC[C@@H]5C4)c3)[nH]c12` [compound 166], in that order: 300 nM and 70 nM.
With `CCN(C1CCN(C2CCCC(NC(=O)c3cc4c(F)ccc(C)c4[nH]3)C2)C1)S(C)(=O)=O` (stereo not drawn) [compound 1131], the IC50 with H3K36me3 in A549 cells turned out to be 40 nM; at SETD2(1434-1711), 6 nM.
For `Cc1ccc(F)c2cc(C(=O)Nc3cccc(-c4cccc5nccn45)c3)[nH]c12` [compound 272], the values for the IC50 in the experiment on H3K36me3 in A549 cells (Homo sapiens) and at SETD2(1434-1711) were 800 nM and 100 nM, respectively.
In the case of `Cc1ccc(F)c2cc(C(=O)Nc3cccc(N(C)C4CCN(C)CC4)c3)[nH]c12` [compound 351], the IC50 was greater than 2000 nM in the experiment on H3K36me3 in A549 cells and 90 nM at SETD2(1434-1711).
For `Cc1ccc(F)c2cc(C(=O)NC(C(=O)N(C)C)c3ccccn3)[nH]c12` (stereo not drawn) [compound 491], in that order: 12200 nM and 12100 nM.
Regarding `Cc1ccc(F)c2cc(C(=O)Nc3cccc(N4CCC(OCCN)CC4)c3)[nH]c12` [compound 240], the IC50 in the experiment on H3K36me3 in A549 cells stood at 600 nM; at SETD2(1434-1711), 20 nM.
For `Cc1ccc(F)c2cc(C(=O)NC3CCCC(N4CCC(N(C)C(=O)C5COC5)C4)C3)[nH]c12` (stereo not drawn) [compound 947] the same measures were greater than 2000 nM and 5500 nM.
For `Cc1cccc2cc(C(=O)Nc3ccc4ncc(CN(C)C)n4c3)[nH]c12` [compound 427], in that order: 4000 nM and 400 nM.
